Data as given in patent publication US7544703B2, “Cyclic compound having 4-pyridylalkylthio group having substituted or unsubstituted amino group introduced therein” (Santen Pharmaceutical Co., Ltd., priority 2004, dated 2009).
Structures can show the parent of a compound that is named as a salt.

Experiments:
[1] = test system: B16 cells; assay: Tumor growth inhibitory action test using cancer models in mice (B16 cells); format: in vivo; details: C57BL/6N mouse, B16 cells intradermal; 100 mg/kg/day oral once a day, day 0 to day 10; average of 9 mice per group; read-out: Tumor tissue weight inhibition rate (%)
Protocol: A tumor growth inhibitory action test of the compounds of the present invention was performed using a tumor growth model in mice, which is one of the widely-used methods of evaluating in vivo anticancer effects of drugs.
As one of the widely-used methods of evaluating anticancer effects of drugs, a tumor growth inhibitory action test using cancer models in mice has been reported in Cancer Res., 59, 5209-5218 (1999). According to the method described in the above-mentioned document, a tumor growth inhibitory action test of the compounds of the present invention was performed, the tumor tissue weight inhibition rate was calculated, and the anticancer effect of each of the compounds of the present invention was evaluated using the obtained rate as an index.
A 1% aqueous methyl cellulose solution was added to each test compound to suspend it with a sonicator, whereby a 10 mg/mL test compound suspension was prepared.
Physiological saline was added to B16 cells, whereby a 3.3×10^7 cells/mL B16 cell suspension was prepared.
• 1) The back of each mouse (female, 6 weeks of age, C57BL/6N mouse) was depilated using a depilatory under Nembutal anesthesia. • 2) Several days after the depilation, the B16 cell suspension (300 μL) was injected intradermally into the back of the mouse under Nembutal anesthesia. • 3) From the B16 cell injection day (i.e. on day 0) to day 10, the test compound suspension (100 mg/kg/day) was orally administered once a day consecutively. • 4) Ten days after the injection of the cells, the mouse was euthanized with CO2 gas. • 5) A tumor tissue was enucleated from the mouse, and the weight of the tumor tissue was measured with an electronic balance. • 6) A test was performed in the same manner as in 1) to 5) except that the 1% aqueous methyl cellulose solution was used instead of the test compound suspension, and the result was used as a control. (Calculation of Tumor Tissue Weight Inhibition Rate)
A tumor tissue weight inhibition rate (the average of 9 mice per group), which was used as an index of anticancer effect, was calculated according to the following calculation equation. Tumor tissue weight inhibition rate (%)=100−(Mx/Mo)×100 (Calculation Equation) Mo: Tumor tissue weight of control group Mx: Tumor tissue weight of test compound solution administration group (Test Results and Discussion)

[2] = test system: adjuvant arthritis models in rats; assay: Paw edema inhibitory action test using adjuvant arthritis models in rats; format: in vivo; details: 504 h; Lewis rat, adjuvant-untreated (secondary inflammation) paw, day 21; 10 mg/kg/day oral once a day, day 0 to day 20; average of 8 rats per group; read-out: Paw edema inhibition rate (%)
Protocol: A paw edema inhibitory action test of the compounds of the present invention was performed using an adjuvant arthritis model in rats, which is one of the widely-used methods of evaluating in vivo antiarthritis effects of drugs.
As one of the widely-used methods of evaluating antiarthritic effects of drugs, a paw edema inhibitory action test using adjuvant arthritis models in rats is known. Accordingly, a paw edema inhibitory action test of the compounds of the present invention was performed, the paw edema inhibition rate was calculated, and the antiarthritic effect of each of the compounds of the present invention was evaluated using the obtained rate as an index.
A 1% aqueous methyl cellulose solution was added to each test compound to suspend it, whereby a 2 mg/mL test compound suspension was prepared.
Liquid paraffin was added to Mycobacterium butyricum to suspend it, whereby 6 mg/mL adjuvant was prepared.
• 1) The adjuvant (0.1 mL) was injected subcutaneously into a left hind paw sole of each rat (male, 9 weeks of age, Lewis rat) to induce arthritis. • 2) From the adjuvant injection day (i.e. on day 0) to day 20, the test compound suspension (10 mg/kg/day) was orally administered once a day consecutively. • 3) On the adjuvant injection day, day 1, day 4, day 7, day 11, day 14, day 18 and day 21, each paw volume of both hind paws was measured with a plethysmometer. • 4) A test was performed in the same manner as in 1) to 3) except that the 1% aqueous methyl cellulose solution was used instead of the test compound suspension, and the result was used as a control. (Method of Evaluation)
Each paw edema inhibition rate of paw edema in an adjuvant-untreated paw (secondary inflammation paw) in each test compound administration group to paw edema in a secondary inflammation paw in a control group was calculated, and the antiarthritic effect of each of the compounds of the present invention was evaluated using the obtained rate as an index.
The paw edema rate was calculated according to the following calculation equation 1, and then the paw edema inhibition rate (the average of 8 rats per group), which was used as an index of the antiarthritic effect, was calculated according to the calculation equation 2. Paw edema rate (%)=(Paw volume after adjuvant treatment/paw volume before adjuvant treatment)×100 (Calculation Equation 1) Paw edema inhibition rate (%)=100−{(Sx−100)/(So−100)}×100 (Calculation Equation 2) So: Paw edema rate of control group Sx: Paw edema rate of test compound suspension administration group (Test Results and Discussion)

Row | SMILES | inhibition in vivo at 100 mg/kg/day [1] | inhibition in vivo at 10 mg/kg/day [2]
1 | CC(=O)OCC(=O)Nc1cc(CSc2ncccc2C(=O)Nc2cc(C)cc(C)c2)ccn1 [Compound 10-1, 2-(2-Acetoxyacetylaminopyridin-4-ylmethylthio)-N-(3,5-dimethylphenyl)pyridine-3-carboxamide] | 54% | 59%
2 | CC(=O)Nc1cc(CSc2ncccc2C(=O)Nc2ccc(Cl)cc2)ccn1 [Compound 4-10, 2-(2-Acetylaminopyridin-4-ylmethylthio)-N-(4-chlorophenyl)pyridine-3-carboxamide] | 75% | 71%
3 | O=C(CO)Nc1cc(CSc2ncccc2C(=O)Nc2ccc(OC(F)(F)F)cc2)ccn1 [Compound 12-1, 2-(2-Hydroxyacetylaminopyridin-4-ylmethylthio)-N-(4-trifluoromethoxyphenyl)pyridine-3-carboxamide] | 85% | 48%
4 | Cc1cc(C)cc(NC(=O)c2cccnc2SCc2ccnc(N)c2)c1 [Compound 3-1, 2-(2-Aminopyridin-4-ylmethylthio)-N-(3,5-dimethylphenyl)pyridine-3-carboxamide monohydrochloride] | 70% | 48%
5 | CC(=O)Nc1cc(CSc2ncccc2C(=O)Nc2cc(C)cc(C)c2)ccn1 [Compound 4-1, 2-(2-Acetylaminopyridin-4-ylmethylthio)-N-(3,5-dimethylphenyl)pyridine-3-carboxamide] | 75% | 90%
6 | Nc1cc(CSc2ncccc2C(=O)Nc2ccc(OC(F)(F)F)cc2)ccn1 [Compound 3-10, 2-(2-Aminopyridin-4-ylmethylthio)-N-(4-trifluoromethoxyphenyl)pyridine-3-carboxamide] | 85% | 35%
7 | CNc1cc(CSc2ncccc2C(=O)Nc2ccc(OC(F)(F)F)cc2)ccn1 [Compound 3-8, 2-(2-Methylaminopyridin-4-ylmethylthio)-N-(4-trifluoromethoxyphenyl)pyridine-3-carboxamide monohydrochloride] | 80% | 30%
8 | CC(=O)Nc1cc(CSc2ncccc2C(=O)Nc2ccc(OC(F)(F)F)cc2)ccn1 [Compound 4-11, 2-(2-Acetylaminopyridin-4-ylmethylthio)-N-(4-trifluoromethoxyphenyl)pyridine-3-carboxamide] | 86% | 65%
9 | CNC(=O)Nc1cc(CSc2ncccc2C(=O)Nc2cc(C)cc(C)c2)ccn1 [Compound 9-1, N-(3,5-Dimethylphenyl)-2-[2-(N′-methylureido)pyridin-4-ylmethylthio]pyridine-3-carboxamide] | 43% | 55%
